Data published in patent US20070072251A1, “In vivo imaging using peptide derivatives” (CTT Cancer Targeting Technologies OY, priority 2003, published 2007).
Where a SMILES comes first, the peptide text is derived from it. Bridges are numbered along the chain shown (N, C = ends). Where no end group is shown, it is not given here. The star is where a group is joined. DTPA = O=C(O)CN(CCN(CC(=O)O)CC(=O)O)CCN(CC(=O)O)CC(=O)*

Columns and labels:
[1] = Tumor targeting of radiolabelled LLG derivatives in mouse model of human myelomonocytic leukemia (gamma imaging, tissue counting); assay type: in vivo; settings: mouse, in vivo, total radioactivity; at 24 hrs, intravenous injection, U937 model; read-out: absolute tumor-to-blood ratio
From the text: (§1) I-125 label, mouse model of human myelomonocytic leukemia. Planar gamma image. In these figures animals have been injected with radiolabelled peptide and anesthesized animals have been imaged under gamma camera (pinhole collimator, Picker SX-300 gamma camera).
(§2) The radiolabelled peptide derivatives were imaged at different time points using gamma camera in order to study tumor uptake in vivo as a function of time. After last imaging, tumor tissue were extirpated and counted for radioactivity. Detailed microdistribution was studied using quantitative autoradiography.
(§3) The peptide was labelled using In-111 label and direct iodination, as well as cDTPA.
(§4) The peptide was labelled using In-111 label and direct iodination and cDTPA. […] In this model absolute tumor-to-blood ratio was 4.7 at 24 hrs.

[2] = system: human myelomonocytic leukemia U937 cell line; experiment: as above; assay type: in vivo
From the text: as §1, §2, §3, §4

integrin I-domain = experiment: BIACORE affinity of LLG to integrin; assay type: binding; settings: 134 nM-134 μM; not detectable due to the small size of the peptide
Procedure: We examined the affinity of LLG to integrin using BIACORE. In this method, purified integrin I-domain was immobilized on the gold coated carboxymethylated dextran chip. The immobilization succeeded, and in various channels a RU between 2000-4000 was obtained. Various concentrations (3.3 nM-33 μM) of LLG-GST or GST were tested for their ability to bind to the I-domain. Reaction buffer was 10 mM HEPES (pH 7.4)-150 mM NaCl, with or without 1 mM MgCl2. […] Addition of detergent P20 0.05% could not diminish the background.
In another set of experiment, plain LLG peptide was used for affinity testing. The concentration of the tested peptide varied between 134 nM-134 μM. […] The BIACORE method is currently under development, and we intend to study the affinity again with a peptide coupled to a higher molecular weight, inert carrier molecule.

[3] = Biodistribution of I-125 labelled LLG in mice; assay type: in vivo; settings: 30 min and 180 min after tail vein injection
Procedure: LLG (YADGACPCFLLGCC) was labelled with I-125, and the purified peptide (40 μg; ˜500 kBq) was injected into the tail vein of mice in the volume of […]. At 30 min and 180 min after peptide injection, the mice were sacrificed and their blood and tissues were collected to measure the radioactivity. Results are expressed as percentage of injected dose per 1.0 g tissue (% D/g) (FIG. 11). All values are indicated as the mean±SD of 3 mice.

E. coli abscess = experiment: LLG targeting to E. coli abscess in rabbits (gamma camera imaging, gamma-counter biodistribution); assay type: in vivo, New Zealand White rabbits
Procedure: (§5) In this experiment, the targeting of LLG to sites of inflammation was examined in Wistar rats and New Zealand White rabbits, by inducing an abscess with approximately 1×10^9 colony-forming units of Staphylococcus aureus or Escherichia coli injected into the left tight muscle. During the procedure, the animals were anesthetized. After 24 hours, when swelling of the muscle was apparent, the In-111 radiolabeled peptide CPCFLLGCC was injected i.v. and accumulation of the peptide was followed with gamma camera imaging. The peptide was tested using 3 animals in both animal species.
The animals were followed-up for 4 hours. In late images urinary excretion disturbed the imaging, but signal-to-background ratio remained high. No other targets than abscess could be detected. Imaging would have been even more successful, if the rabbits would have been catheterized (or bladder emptied) before imaging session.
(§6) After the imaging period, animals were sacrificed, various tissues were collected and the accumulated radioactivity was measured using a gamma-counter. In FIG. 7A, the amount of accumulated peptide (expressed as percentage of injected dose/weight of the tissue measured; % ID/g) is shown for certain tissues of rabbits (mean of 3 animals). […] In these animals, the corresponding ratios were 4.5 and 2.0 for muscle and blood, respectively.

S. aureus abscess = experiment: LLG targeting to S. aureus abscess in rats (gamma camera imaging, gamma-counter biodistribution); assay type: in vivo, Wistar rats
Procedure: as §5
In rats assay, animals were followed-up for 2 hours after peptide injection. […] However, signal-to-background ratio remained high, and as in rabbits, no other targets than abscess could be detected.
as §6

[4] = system: accumulation of cells in peritoneal cavity; experiment: Inhibition of leukocyte migration into thioglycolate inflamed peritoneal cavity; assay type: in vivo, Balb/c mice; settings: 1 mg/kg iv
Procedure: To induce inflammation, female Balb/c mice were injected intraperitoneally with 1 ml of 3% Thioglycolate Broth (TG), three animals/group. Mice in the control group were injected iv with plain vehicle PBS-10% DMSO, and mice in the peptide group were injected iv with 1 mg/kg YADGACPCFLLGCC in PBS-10% DMSO. After 60 or 120 minutes, the mice were sacrificed. Cells in peritoneal cavity were collected by lavage with 5 ml PBS-5 mM EDTA, and counted with a hemocytometer.
In this experiment different cell populations were not distinguished. However, once again, YADGACPCFLLGCC reduced the accumulation of cells in experimental inflammation in vivo by 78% after 60 minutes and 52% after 120 minutes (FIG. 9).

THP-1 cell line = experiment: Blocking of LLG-GFP binding to THP-1 cell line; assay type: cell-based
Procedure: What has been observed is that at 50 μM YLLG concentration 95% of LLG-GFPs binding is been blocked. When concentrations are been lowered to 20 μM still 70% inhibition occurs. […] However, due to the unspecific binding of peptide to the plastic walls of the container and the relative high concentrations of LLG-GFP needed for signal nanomolar scale, experiments can not been performed with this setup on its current already un-optimized state.

[5] = % ID/g, mean of 3 animals, after imaging period

CC(C)C[C@@H]1NC(=O)[C@H](CC(C)C)NC(=O)[C@H](Cc2ccccc2)NC(=O)[C@@H]2CSSC[C@@H](C(=O)O)NC(=O)[C@H](CSSC[C@H](NC(=O)[C@H](C)NC(=O)CNC(=O)[C@H](CC(=O)O)NC(=O)[C@H](C)NC(=O)[C@H](Cc3ccc(O)cc3)NC(=O)CN(CCN(CCN(CC(=O)O)CC(=O)O)CC(=O)O)CC(=O)O)C(=O)N3CCC[C@H]3C(=O)N2)NC(=O)CNC1=O [In-111-YADGA LLG, metal not drawn] ({DTPA}-YADGACPCFLLGCC-OH; disulfide 6-13, 8-14 (inferred); N-terminus and C-terminus assumed)
tissue to tissue ratio at 24 h [1]: 4.7 | tumor targeting (gamma image) ([2]; at 3 hrs after intravenous injection, FIG. 1): clearly tumor targeting

CPCFLLGCC [nonapeptide with two disulfide bridges, ligand to leukocyte β2 integrins]
specific binding to immobilized integrin I-domain (integrin I-domain): no specific binding could be detected

I-125-YADGA LLG peptide: YADGACPCFLLGCC labelled with I-125 by direct iodination (cysteine pairing not given here; also: I-125 label by direct iodination)
tumor targeting (planar gamma image) ([2]; at 24 hrs after intravenous injection, FIGS. 2-3): tumor targeting | clearance [3]: rapid clearance through kidneys | tissue accumulation ([3]; 40 μg): did not accumulate in any tissue

In-111 radiolabeled peptide CPCFLLGCC: In-111 radiolabeled peptide CPCFLLGCC, cDTPA chelation (cysteine pairing not given here; also: In-111 radiolabel, cDTPA chelation)
signal-to-background ratio in late images (E. coli abscess): remained high | accumulation in abscess compared to blood (E. coli abscess; [5]): 2.3 fold | accumulation in abscess compared to muscle (E. coli abscess; [5]): 21.7 fold | abscess targeting in gamma camera imaging (E. coli abscess; E. coli abscess in thigh muscle, i.v., followed 4 hours): specific targeting into tight muscle, which was clearly visible within one hour | clearance (E. coli abscess; i.v.): rapid clearance through kidneys | signal-to-background ratio in late images (S. aureus abscess): remained high | abscess targeting in gamma camera imaging (S. aureus abscess; S. aureus abscess, followed 2 hours): specific targeting | accumulation ratio abscess to blood (S. aureus abscess; after imaging period): 2.0 | accumulation ratio abscess to muscle (S. aureus abscess; after imaging period): 4.5

YADGACPCFLLGCC
reduction of accumulation of cells in experimental inflammation ([4]; after 60 minutes): 78% | reduction of accumulation of cells in experimental inflammation ([4]; after 120 minutes): 52% | inhibition of LLG-GFPs binding (THP-1 cell line; 20 μM YLLG): 70% | LLG-GFPs binding blocked (THP-1 cell line; 50 μM YLLG): 95% | IC 50 of blocking LLG-GFP binding (THP-1 cell line; judged from FIG. 12): on nanomolar scale
